Measurements: patent publication US20080181866A1, “Amido Anti-viral Compounds” (Genelabs Technologies, Inc., priority 2006, published 2008)

What follows are compounds tested on HCV replication (assay: HCV replicon assay (luciferase) in ET (Huh-lucubineo-ET) cell line). Details: Hepatitis C virus, tested at 5 μM; ET replicon cells; luciferase activity measured 48-72 hours later; relative to no compound control.
Type: cell-based
Experimental: A cell line, ET (Huh-lucubineo-ET) was used for screening of compounds of the present invention for inhibiting HCV replication. The ET cell line was stably transfected with RNA transcripts harboring a I389luc-ubi-neo/NS3-3′/ET; replicon with firefly luciferase-ubiquitin-neomycin phosphotransferase fusion protein and EMCV-IRES driven NS3-5B polyprotein containing the cell culture adaptive mutations (E1202G; T12801; K1846T) (Krieger at al, 2001 and unpublished). The ET cells were grown in DMEM (Dulbeco's Modified Eagle's Medium), supplemented with 10% fetal calf serum, 2 mM Glutamine, Penicillin (100 IU/mL)/Streptomycin (100 μg/mL), 1× nonessential amino acids, and 250 μg/mL G418 (“Geneticin”). They were all available through Life Technologies (Bethesda, Md.). The cells were plated at 0.5-1.0×10^4 cells/well in the 96 well plates and incubated for 24 hrs before adding testing compounds. Then the compounds were added to the cells to achieve a final concentration of 0.1 nM to 50 μM and a final DMSO concentration of 0.5%. Luciferase activity were measured 48-72 hours later by adding a lysis buffer and the substrate (Catalog number Glo-lysis buffer E2661 and Bright-Glo luciferase system E2620 Promega, Madison, Wis.). Cells should not be too confluent during the assay. Percent inhibition of replication was plotted relative to no compound control. Under the same condition, cytotoxicity of the compounds was determined using cell proliferation reagent, WST-1 (Roche, Germany). The compounds showing antiviral activities, but no significant cytotoxicities were chosen to determine EC50 and TC50. For these determinations, a 10 point 2-fold serial dilution for each compound was used, which spans a concentration range of 1000 fold. EC50 and similarly TC50 values were calculated by fitting % inhibition at each concentration to the following equation:
% inhibition=100%/[(IC50/[I])^b+1]
where b is Hill's coefficient.
In some preferred embodiments compounds of Formula I will have a % inhibition of at least 20% when tested at 5 μM. In other embodiments the compounds of Formula I will have a % inhibition of at least 50% when tested at 5 μM.
In the case of O=C(NC1CC1)c1ccc(-c2csc(NC(=O)[C@@H]3CSC(C4CCOCC4)N3C(=O)[C@H]3CCCO3)n2)cc1 (stereo partly drawn) [Compound 7074, 3-(Tetrahydro-furan-2-carbonyl)-2-(tetrahydro-pyran-4-yl)-thiazolidine-4-carboxylic acid [4-(4-cyclopropylcarbamoyl-phenyl)-thiazol-2-yl]-amide], the inhibition at 5 µM is reported as 99%. For O=C(Nc1nc(-c2ccccc2)cs1)[C@@H]1CS[C@H](c2cccnc2)N1C(=O)OCc1ccccc1 [Compound 7058, (2R,4R)-4-(4-Phenyl-thiazol-2-ylcarbamoyl)-2-pyridin-3-yl-thiazolidine-3-carboxylic acid benzyl ester], the inhibition at 5 µM was 99.9%. In the case of NC(=O)c1cccc(NC(=O)[C@@H]2CSC(c3ccncc3)N2C(=O)OCc2ccccc2)c1 (stereo partly drawn) [Compound 7127, 4-(3-carbamoyl-phenylcarbamoyl)-2-pyridin-4-yl-thiazolidine-3-carboxylic acid benzyl ester], the inhibition at 5 µM is reported as 25.7%. With O=C(NCCN1CCOCC1)c1ccc(-c2csc(NC(=O)[C@@H]3CSC4(CCOCC4)N3C(=O)OCc3ccccc3)n2)cc1 [Compound 7138, 3-{4-[4-(2-Morpholin-4-yl-ethylcarbamoyl)-phenyl]-thiazol-2-ylcarbamoyl}-8-oxa-1-thia-4-aza-spiro[4.5]decane-4-carboxylic acid benzyl ester] the inhibition at 5 µM was 100%. Work on O=C(NC1CC1)c1ccc(-c2csc(NC(=O)[C@@H]3CSC(C4CCOCC4)N3C(=O)[C@@H]3CCCO3)n2)cc1 (stereo partly drawn) [Compound 7069, 3-(Tetrahydro-furan-2-carbonyl)-2-(tetrahydro-pyran-4-yl)-thiazolidine-4-carboxylic acid [4-(4-cyclopropylcarbamoyl-phenyl)-thiazol-2-yl]-amide] yielded an inhibition at 5 µM of 98.8%. For O=C(NC1CC1)c1ccc(-c2csc(NC(=O)[C@@H]3CC[C@H](c4ccncc4)N3C(=O)OCc3ccccc3)n2)cc1 [Compound 7003, (2S,5R)-2-[4-(4-Cyclopropylcarbamoyl-phenyl)-thiazol-2-ylcarbamoyl]-5-pyridin-4-yl-pyrrolidine-1-carboxylic acid benzyl ester], the inhibition at 5 µM was 100%. For O=C(Nc1nc(-c2ccccc2)cs1)[C@@H]1CSC(c2ccncc2)N1C(=O)OCc1ccccc1 (stereo partly drawn) [Compound 7026, 4-(4-Phenyl-thiazol-2-ylcarbamoyl)-2-pyridin-4-yl-thiazolidine-3-carboxylic acid benzyl ester], the inhibition at 5 µM was 89.1%. O=C(Cc1cccc(NC(=O)[C@@H]2CSC(c3ccncc3)N2C(=O)OCc2ccccc2)c1)NCCc1ccccc1 (stereo partly drawn) [Compound 7136, 4-[3-(Phenethylcarbamoyl-methyl)-phenylcarbamoyl]-2-pyridin-4-yl-thiazolidine-3-carboxylic acid benzyl ester] gave an inhibition at 5 µM of 90%. In the case of O=C(NC1CC1)c1ccc(-c2csc(NC(=O)[C@@H]3COC(CC4CCOCC4)N3C(=O)OCc3ccccc3)n2)cc1 (stereo in doubt) [Compound 7095, 4-[4-(4-Cyclopropylcarbamoyl-phenyl)-thiazol-2-ylcarbamoyl]-2-(tetrahydropyran-4-ylmethyl)-oxazolidine-3-carboxylic acid benzyl ester], the inhibition at 5 µM is reported as 99.9%. With O=C(NC1CC1)c1ccc(-c2csc(NC(=O)[C@@H]3CSC(CCCCC(=O)N4CCOCC4)N3C(=O)OCc3ccccc3)n2)cc1 (stereo partly drawn) [Compound 7071, 4-[4-(4-Cyclopropylcarbamoyl-phenyl)-thiazol-2-ylcarbamoyl]-2-(5-morpholin-4-yl-5-oxo-pentyl)-thiazolidine-3-carboxylic acid benzyl ester] the inhibition at 5 µM was 100%. CNC(=O)CCC1SC[C@@H](C(=O)Nc2nc(-c3ccc(C(=O)NC4CC4)cc3)cs2)N1C(=O)OCc1ccccc1 (stereo in doubt) [Compound 7091, 4-[4-(4-Cyclopropylcarbamoyl-phenyl)-thiazol-2-ylcarbamoyl]-2-(2-methylcarbamoyl-ethyl)-thiazolidine-3-carboxylic acid benzyl ester] gave an inhibition at 5 µM of 100%. O=C(NC1CC1)c1ccc(-c2csc(NC(=O)[C@@H]3CSC(CC4CCOCC4)N3C(=O)OCc3ccccc3)n2)cc1 (mixture of isomers) [Compound 7004, (R)-4-[4-(4-Cyclopropylcarbamoyl-phenyl)-thiazol-2-ylcarbamoyl]-2-(tetrahydro-pyran-4-ylmethyl)-thiazolidine-3-carboxylic acid benzyl ester] showed an inhibition at 5 µM of 99.9%. O=C(NCc1ccccc1)c1cccc(NC(=O)[C@@H]2CSC(c3ccncc3)N2C(=O)OCc2ccccc2)c1 (stereo partly drawn) [Compound 7100, 4-(3-Benzylcarbamoyl-phenylcarbamoyl)-2-pyridin-4-yl-thiazolidine-3-carboxylic acid benzyl ester] gave an inhibition at 5 µM of 80.1%. Compound CC(C)(C)OC(=O)N1c2ccccc2C[C@H]1C(=O)Nc1nc(-c2ccc(C(=O)NC3CC3)cc2)cs1 [Compound 7020, (S)-2-[4-(4-Cyclopropylcarbamoyl-phenyl)-thiazol-2-ylcarbamoyl]-2,3-dihydro-indole-1-carboxylic acid tert-butyl ester] has an inhibition at 5 µM of 99.5%. O=C(Cc1ccc(NC(=O)[C@@H]2CSC(c3ccncc3)N2C(=O)OCc2ccccc2)cc1)NCCc1ccccc1 (stereo partly drawn) [Compound 7119, 4-[4-(Phenethylcarbamoyl-methyl)-phenylcarbamoyl]-2-pyridin-4-yl-thiazolidine-3-carboxylic acid benzyl ester] was tested, and the inhibition at 5 µM was 1.2%. With CN1CCC2(CC1)SC[C@@H](C(=O)Nc1nc(-c3ccc(C(=O)NC4CC4)cc3)cs1)N2C(=O)OCc1ccccc1 [Compound 7114, 3-[4-(4-Cyclopropylcarbamoyl-phenyl)-thiazol-2-ylcarbamoyl]-8-methyl-1-thia-4,8-diaza-spiro[4.5]decane-4-carboxylic acid benzyl ester] the inhibition at 5 µM was 100%. For O=C(NC1CC1)c1ccc(-c2csc(NC(=O)[C@@H]3COC(c4ccccc4)N3C(=O)OCc3ccccc3)n2)cc1 (stereo partly drawn) [Compound 7046, (S)-4-[4-(4-Cyclopropylcarbamoyl-phenyl)-thiazol-2-ylcarbamoyl]-2-phenyl-oxazolidine-3-carboxylic acid benzyl ester], the inhibition at 5 µM was 99.1%. Compound O=C(NC1CC1)c1ccc(-c2csc(NC(=O)[C@@H]3CSC(c4ccnc(O)c4)N3C(=O)OCc3ccccc3)n2)cc1 (mixture of isomers) [Compound 7049, (R)-4-[4-(4-Cyclopropylcarbamoyl-phenyl)-thiazol-2-ylcarbamoyl]-2-(2-hydroxy-pyridin-4-yl)-thiazolidine-3-carboxylic acid benzyl ester] has an inhibition at 5 µM of 98.8%. Work on O=C(NC1CC1)c1ccc(-c2csc(NC(=O)[C@@H]3CSC(C4CCCNC4)N3C(=O)OCc3ccccc3)n2)cc1 (mixture of isomers) [Compound 7021, (R)-4-[4-(4-Cyclopropylcarbamoyl-phenyl)-thiazol-2-ylcarbamoyl]-2-piperidin-3-yl-thiazolidine-3-carboxylic acid benzyl ester] yielded an inhibition at 5 µM of 100%. Compound CC(C)(C)OC(=O)N1[C@@H](c2ccccc2)CC[C@H]1C(=O)Nc1nc(-c2ccc(C(=O)NC3CC3)cc2)cs1 [Compound 7005, (2S,5R)-2-[4-(4-Cyclopropylcarbamoyl-phenyl)-thiazol-2-ylcarbamoyl]-5-phenyl-pyrrolidine-1-carboxylic acid tert-butyl ester] has an inhibition at 5 µM of 97.8%. O=C(NC1CC1)c1ccc(-c2csc(NC(=O)[C@@H]3CSC(c4ccnc5ccccc45)N3C(=O)OCc3ccccc3)n2)cc1 (mixture of isomers) [Compound 7007, (R)-4-[4-(4-Cyclopropylcarbamoyl-phenyl)-thiazol-2-ylcarbamoyl]-2-quinolin-4-yl-thiazolidine-3-carboxylic acid benzyl ester] gave an inhibition at 5 µM of 100%. For COc1ccc(Cc2cnc(NC(=O)[C@@H]3CSC(c4ccncc4)N3C(=O)OCc3ccccc3)s2)cc1 (stereo in doubt) [Compound 7137, 4-[5-(4-Methoxy-benzyl)-thiazol-2-ylcarbamoyl]-2-pyridin-4-yl-thiazolidine-3-carboxylic acid benzyl ester], the inhibition at 5 µM was 17.1%. In the case of COc1ccc(C2SC[C@@H](C(=O)Nc3nc(-c4ccc(C(=O)NC5CC5)cc4)cs3)N2C(=O)OCc2ccccc2)cc1 (mixture of isomers) [Compound 7030, (R)-4-[4-(4-Cyclopropylcarbamoyl-phenyl)-thiazol-2-ylcarbamoyl]-2-(4-methoxy-phenyl)-thiazolidine-3-carboxylic acid benzyl ester], the inhibition at 5 µM is reported as 99.9%.

Same assay, conditions: tested at 5 μM; ET replicon cells; luciferase activity measured 48-72 hours later; relative to no compound control; 5 µM
For CC(C)(C)OC(=O)N1C(c2cccnc2)SC[C@H]1C(=O)Nc1nc(-c2ccc(C(=O)NC3CC3)cc2)cs1 (single isomer, unassigned) [Compound 7055, 4-[4-(4-Cyclopropylcarbamoyl-phenyl)-thiazol-2-ylcarbamoyl]-2-pyridin-3-yl-thiazolidine-3-carboxylic acid tert-butyl ester], the “% inhibition at 5 μM” value was 99.1%.
